14 compounds from paper PMC5610748, “Evaluation of Novel α-(Acyloxy)-α-(Quinolin-4-yl) Acetamides as Antiplasmodial Agents” (Iranian Journal of Pharmaceutical Research : IJPR, 2017) can be followed below.

The subject of assay [1] is P. falciparum 3D7 chloroquine-sensitive strain. In words: In-vitro antiplasmodial test (Giemsa-stained smears). Type of assay: cell-based, Plasmodium falciparum. The following applies: read-out: P. falciparum IC50. As for the experimental part:
The P. falciparum 3D7 chloroquine-sensitive strain used throughout the study. In-vitro culture of P. falciparum was carried out according to the method described by previously ([12]-[14]). Briefly, parasites were cultured on human erythrocytes (blood group O^+), provided by the Blood Transfusion Organization (Zanjan, Iran), in RPMI 1640 medium completed with 5% of human AB^+ serum, 0.3 g/100 mL Albumax I, 25 mM HEPES, 19 mM sodium carbonate and 30 µg/mL gentamicin sulfate at pH 7.2. Type O^+ erythrocytes were washed three times with RPMI 1640 and stored at 4 °C.
Parasites were aerated in 25 mL flasks under 3% oxygen, 6% carbon dioxide and 91% nitrogen atmosphere. The medium was changed each day.
Pure compounds were dissolved in DMSO at concentration of 10 mg/mL and diluted with complete malaria culture medium to reach 1 mg/mL before use. Parasites were synchronized to the ring stage by sorbitol method described previously ([15]). From 2-fold dilution series (50-0.39 µg/mL) of compounds prepared in assay medium, 20 µL added to each well of 96-well microtiter plates in triplicate. One hundred eighty µL of synchronous P. falciparum culture (1% parasitemia, 2% hematocrit) added to each well reaching a final volume of 200 µL per well. […] Plates were incubated at 37 °C for 24 h. […] After 24 h incubation, Giemsa stained thin smears were made and parasitemia was confirmed by the numeration of 1000 erythrocytes per slide. Data acquired by counting the erythrocytes in Giemsa stain were imported in Microsoft Excel spreadsheet and IC50 values were calculated from dose-response curves.

Assay [2] deals with human hepatocellular carcinoma cell line (HepG2). In words: In-vitro cytotoxicity assay (MTT). Type of assay: cell-based. The following applies: HepG2 cells, 24 h incubation. The procedure:
In drug discovery approaches against malaria, one of the important strategies is the safety of active compounds against human. So, the toxicity of active compounds against P. falciparum was assessed on human hepatocellular carcinoma cell line (HepG2) by using MTT (3-[4,5-dimethylthiazol-2-yl] -2,5 diphenyl tetrazolium bromide) assay ([16]-[17]). The cells were cultured in RPMI 1640 medium enriched with 10% FBS (Fetal Bovine Serum) and incubated at 37 °C with 5% CO2 and 96% humidity. After several subcultures, cells were distributed in 96-well plates at 4,000 cells in 100 µL of culture medium and incubated for 24 h at the same condition to allow attachment of cells to the bottom of wells. Then culture medium removed and 100 µL of two-fold serially diluted concentrations of drug (400-1.56 µg/mL) added to each well in triplicate. Microtiter plates further incubated for 24 h in the same condition. Culture medium without drug was used as negative control. After the incubation time, the drug containing medium discharged and for evaluation of cell survival, 25 µL of MTT solution (4 mg/mL in PBS) added to each well and plates incubated for 3 h (in same condition). Then 100 µL of DMSO added to each well and plates were gently shaken to dissolve the formed formazan crystals. The absorbance of each well measured at 540 nm using an ELISA plate reader (Infinite M200, Tecan). The GI% (Growth Inhibition percent) was calculated using the formula Growth Inhibition% = 100 – […], where ODtest is the mean absorbance of treated cells and ODcontrol is the mean absorbance of a negative control. The cell survival of control assumed 100% and IC50 values generated from dose-response curves for each cell line.

[3] abbreviates: Plasmodium falciparum, 3D7 chloroquine-sensitive strain, ring-stage synchronized, 24 h incubation, parasitemia by Giemsa smears.
Setting [4] is: 3D7 chloroquine-sensitive strain, ring-stage synchronized, 24 h incubation, parasitemia by Giemsa smears.

Read-outs that look alike come from different tables or passages of the source.

As a reminder, the IC50 is the midpoint of a concentration-inhibition curve. On to `O=C(OC(C(=O)NC1CCCCC1)c1ccnc2ccccc12)c1ccccc1` (stereo not drawn) [Compound 1], for which the IC50 in assay [1] (setting [3]) worked out at 1.51 µM; in assay [2] (Homo sapiens), 230 µM.

For the compound `CC(C)(C)NC(=O)C(OC(=O)c1ccccc1)c1ccnc2ccccc12` (stereo not drawn) [Compound 11], the IC50 in assay [1] (setting [4]) came out at 4.35 µM.

`CC(C)(C)NC(=O)C(OC(=O)c1ccc(C#N)cc1)c1ccnc2ccccc12` (stereo not drawn) [Compound 17]: the IC50 in assay [1] (setting [4]) amounted to 3.08 µM.

With `Cc1cccc(C)c1NC(=O)C(OC(=O)c1ccc(C(C)(C)C)cc1)c1ccnc2ccccc12` (stereo not drawn) [Compound 20], the IC50 turned out to be 1.37 µM in assay [1] (setting [3]) and 199 µM in assay [2] (Homo sapiens).

In the case of `CC(C)(C)NC(=O)C(OC(=O)c1ccc(Br)cc1)c1ccnc2ccccc12` (stereo not drawn) [Compound 16], the IC50 in assay [1] (setting [4]) was found to be 5.1 µM.

`O=C(OC(C(=O)NC1CCCCC1)c1ccnc2ccccc12)c1ccc(Cl)cc1` (stereo not drawn) [Compound 4]: the IC50 in assay [1] (setting [4]) is 5.02 µM.

On to `CC(C)(C)NC(=O)C(OC(=O)c1ccc(Cl)cc1)c1ccnc2ccccc12` (stereo not drawn) [Compound 13], for which the IC50 in assay [1] (setting [4]) amounted to 5.85 µM.

As for `Cc1cccc(C)c1NC(=O)C(OC(=O)c1ccc(Cl)cc1)c1ccnc2ccccc12` (stereo not drawn) [Compound 21], the IC50 in assay [1] (setting [4]) was 4.18 µM.

Take `Cc1cccc(C)c1NC(=O)C(OC(=O)c1cccc2ccccc12)c1ccnc2ccccc12` (stereo not drawn) [Compound 22]: the IC50 in assay [1] (setting [3]) came to 1.32 µM; in assay [2] (Homo sapiens), 254 µM.

Consider `Cc1cccc(C)c1NC(=O)C(OC(=O)c1ccccc1)c1ccnc2ccccc12` (stereo not drawn) [Compound 19], for which the IC50 in assay [1] (setting [4]) turned out to be 4.31 µM.

Take `CCN(CC)CCCC(C)Nc1ccnc2cc(Cl)ccc12` (stereo not drawn) [CQ, Chloroquine, reference compound]: the IC50 in assay [1] (Plasmodium falciparum, 3D7, 24 h) was 0.7 µM.

As to `CC(C)(C)c1ccc(C(=O)OC(C(=O)NC2CCCCC2)c2ccnc3ccccc23)cc1` (stereo not drawn) [Compound 2], the IC50 in assay [1] (setting [4]) was determined as 2.64 µM; in assay [2] it was 191 µM.

On to `CC(C)(C)NC(=O)C(OC(=O)c1cccc2ccccc12)c1ccnc2ccccc12` (stereo not drawn) [Compound 18], for which the IC50 in assay [1] (setting [4]) is 6.95 µM.

For the compound `O=C(OC(C(=O)NC1CCCCC1)c1ccnc2ccccc12)c1ccc(I)cc1` (stereo not drawn) [Compound 8], in assay [1] (setting [4]), the IC50 was 3.5 µM.
